The structures appear in SMILES notation.

The target of experiment [1] is Recombinant human Cyclophilin D protein (amino acids 44-207, K175I) (Homo sapiens, UniProt P30405, K175I). Briefly: CypD SPR binding assay. The settings on record: for CypD LE (ligand binding efficiency based on the SPR KDs): fragment hits; for SPR binding CypD LE: ligand binding efficiency based on SPR KDs.
For experiment [2], the target named is CypD (30-207 aa, human recombinant) (Homo sapiens, UniProt P30405). Put plainly: Cyclophilin D biochemical FP assay. The experiment is classed as binding. The settings on record: for Biochemical CypD FP assay LE: ligand binding efficiency based on biochemical FP IC50s.
CypD (30-207 aa, human recombinant), sequence (P30405 30-207): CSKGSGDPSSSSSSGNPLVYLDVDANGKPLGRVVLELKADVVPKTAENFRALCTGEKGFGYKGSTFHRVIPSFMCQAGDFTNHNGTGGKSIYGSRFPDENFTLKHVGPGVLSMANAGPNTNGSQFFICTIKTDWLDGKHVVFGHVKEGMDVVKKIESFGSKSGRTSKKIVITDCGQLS

Recombinant human Cyclophilin D protein (amino acids 44-207, K175I), sequence (P30405 44-207 K175I): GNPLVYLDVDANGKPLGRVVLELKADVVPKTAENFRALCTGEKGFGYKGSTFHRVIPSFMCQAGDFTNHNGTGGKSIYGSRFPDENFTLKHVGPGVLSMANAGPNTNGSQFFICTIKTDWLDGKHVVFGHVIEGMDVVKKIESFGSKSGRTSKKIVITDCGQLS

For `CCN1Cc2cc3c(cc2NCCC1=O)OCO3` [compound 4], in experiment [1], the “CypD LE (ligand binding efficiency based on the SPR KDs)” value stood at 0.16. As for `CSc1ccccc1[C@H]1CCCN1C(=O)C(=O)NCc1ccc2c(c1)[C@H]1C[C@@H](N2)[C@H](O)CO1` [compound 31], the IC50 (in general, the concentration at which inhibition is half-maximal) in experiment [2] was more than 100 µM. In addition, in experiment [1], the “SPR binding CypD LE” value turned out to be 0.16.

As to `O=C(CN1C(=O)[C@@H]2[C@H]3CC[C@H](C3)[C@@H]2C1=O)NCc1ccc2c(c1)[C@H]1C[C@@H](N2)[C@H](O)CO1` [compound 40, 2-(exo-3,5-Dioxo-4-aza-tricyclo[5.2.1.02,6]dec-4-yl)-N-((1R,9R,10S)-10-hydroxy-12-oxa-8-aza-tricyclo[7.3.1.02,7]trideca-2(7),3,5-trien-4-ylmethyl)-acetamide], in experiment [2], the IC50 is 0.735 µM and the “Biochemical CypD FP assay LE” value worked out at 0.27. The “SPR binding CypD LE” value in experiment [1] was 0.25. As for `O=C(CN1C(=O)[C@@H]2[C@@H]3CC[C@@H](C3)[C@@H]2C1=O)NCc1ccc2c(c1)[C@H]1C[C@@H](N2)[C@H](O)CO1` [compound 39], in experiment [2], the IC50 was 1.7 µM and the “Biochemical CypD FP assay LE” value came out at 0.26. Further, in experiment [1], the “SPR binding CypD LE” value turned out to be 0.26. Regarding `CCN1Cc2cc(CCC(=O)NCCC(=O)N3CCC[C@@H]3c3ccccc3SC)ccc2NCCC1=O` [compound 23], the IC50 in experiment [2] was more than 100 µM. For the same compound, the “SPR binding CypD LE” value in experiment [1] worked out at 0.12. As for `CCN1Cc2cc(CCC(=O)NCC(=O)N3CCC[C@@H]3c3ccccc3SC)ccc2NCCC1=O` [compound 22], in experiment [2], the IC50 stood at 4.1 µM and the “Biochemical CypD FP assay LE” value is listed as 0.21. Besides, the “SPR binding CypD LE” value in experiment [1] stood at 0.21.

`CSc1ccccc1[C@@H]1CCCN1C(=O)C(=O)NCc1ccc2c(c1)[C@H]1C[C@@H](N2)[C@H](O)CO1` [compound 32]: the IC50 in experiment [2] was more than 30 µM. With `O=C(NCc1ccc2c(c1)[C@H]1C[C@@H](N2)[C@H](O)CO1)C(=O)N1CCCC1` [compound 29], the IC50 in experiment [2] is more than 100 µM. Also, in experiment [1], the Kd (in general, the concentration at which binding is half-saturated) was more than 1500 µM. Turning to `O=C(NCc1ccc2c(c1)[C@@H]1C[C@H](N2)[C@H](O)CO1)C(=O)NC1CCCC1` [compound 30], in experiment [2], the IC50 was 870 µM. Also, in experiment [1], the Kd turned out to be 217 µM. `CCN1Cc2cc(NC(=O)NCC(=O)N3CCC[C@@H]3c3ccccc3SC)ccc2NCCC1=O` [compound 21]: in experiment [2], the IC50 is more than 100 µM. Further, the “SPR binding CypD LE” value in experiment [1] is reported as 0.13. Consider `CSc1ccccc1[C@H]1CCCN1C(=O)CNC(=O)CCc1ccc2c(c1)[C@@H]1C[C@H](N2)[C@H](O)CO1` [compound 19], for which the 50% inhibitory concentration (IC50) in experiment [2] was 54 µM. On to `CCN1Cc2cc(NC(=O)CN3C(=O)C4C(C3=O)[C@H]3CC[C@@H]4C3)ccc2NCCC1=O` (stereo partly drawn) [compound 35], for which the IC50 in experiment [2] is more than 1000 µM. For the compound `O=C(NCc1ccccn1)C(=O)NC1CCCC1` [compound 8], the “CypD LE (ligand binding efficiency based on the SPR KDs)” value in experiment [1] amounted to 0.22. In the case of `CSc1ccccc1[C@H]1CCCN1C(=O)CNC(=O)NCc1ccc(N)cc1` [compound 2, reference compound], the IC50 in experiment [2] amounted to 0.75 µM. The equilibrium dissociation constant (Kd) in experiment [1] amounted to 0.23 µM. In the case of `CCn1nnc(NC(=O)c2ccccc2)n1` [compound 6], the “CypD LE (ligand binding efficiency based on the SPR KDs)” value in experiment [1] amounted to 0.21. Consider `O=C(CN1C(=O)C2C3CCC(C3)C2C1=O)NCc1ccc2c(c1)CCCN2` (stereo not drawn) [compound 38], for which the “potency improvement compared with 36” value in experiment [2] was found to be 2 fold.

As for `CCN1Cc2cc(CNC(=O)NCC(=O)N3CCC[C@@H]3c3ccccc3SC)ccc2NCCC1=O` [compound 20], in experiment [2], the IC50 amounted to 0.19 µM. Besides, the “SPR binding CypD LE” value in experiment [1] stood at 0.25.

Turning to `Nc1ccc(CCNC(=O)CN2C(=O)C3C4CCC(C4)C3C2=O)cc1` (stereo not drawn) [compound 37], in experiment [2], the IC50 was found to be 490 µM and the “Biochemical CypD FP assay LE” value is listed as 0.18. Consider `CSc1ccccc1[C@H]1CCCN1C(=O)CN(C)C(=O)NCc1ccc2c(c1)[C@H]1C[C@@H](N2)[C@H](O)CO1` [compound 18], for which, in experiment [2], the IC50 came to 10 µM. Take `O[C@@H]1CO[C@@H]2C[C@H]1Nc1ccc(F)cc12` [compound 3]: in experiment [1], the “CypD LE (ligand binding efficiency based on the SPR KDs)” value was 0.2. As for `O=C(NCc1ccc2c(c1)[C@@H]1C[C@H](N2)[C@H](O)CO1)C(=O)N1CCCC1` [compound 30], the “Biochemical CypD FP assay LE” value in experiment [2] was determined as 0.16. The “SPR binding CypD LE” value in experiment [1] turned out to be 0.19.

`CCN1Cc2cc(CNC(=O)CN3C(=O)[C@@H]4[C@H]5CC[C@H](C5)[C@@H]4C3=O)ccc2NCCC1=O` [compound 34]: in experiment [2], the IC50 is 80 µM and the “Biochemical CypD FP assay LE” value is on record as 0.18. Moreover, the Kd in experiment [1] was found to be 51 µM.
